Measured values published in patent publication US8691286B2, “Sputum dissolving suctioning solution for endotracheal and tracheostomy tubes” (Teleflex Medical Incorporated, priority 2009, dated 2014).

Assay: Effective concentration of glycerol (Example 2; sputum dried 4 hours, 15 minutes incubation in third cycle)
Design: species or system Human
Conditions: glycerol and dextran sulfate combination in 0.85% NaCl
Protocol: Test solutions containing different concentrations of glycerol and dextran sulfate (w/v) were prepared in 0.85% normal saline. All steps were performed at 37° C. unless specified otherwise. Each well of a 48 well microtitre plate was pre-wetted with a test solution for 2 hours. Human sputum (20 μl) was then allowed to dry for 2 hours on the pre-wetted surface, followed by incubation with 100 μl of the test solution for 15 minutes to dissolve the dried sputum, and subsequent removal of the solution. The complete cycle of sputum drying, incubation with the test solution and removal, was repeated three times. In the third and final cycle, the dried sputum was incubated with the test solution overnight instead of 15 minutes. Visual observations were recorded at each cycle and pictures were taken under a microscope.
Sputum was dried for 4 hours instead of 2 hours in each cycle, and in the third cycle dried sputum was incubated with the test solution for only 15 minutes instead of an overnight incubation.
All the test solutions contained 0.85% of NaCl.

OCC(O)CO [glycerol]
Most effective concentration range: 30-50%

dextran sulfate
Most effective concentration range: 10-20%
